Key:
PDL1/PD1 = PDL1/PD1 (Homo sapiens (Human), UniProt Q9NZQ7); assay: PDL1/PD1 Binding Assay; conditions: PDL1-6xHis 0.3 nM, PD1-Fc-Avi-Biotin 2.5 nM, Acceptor/Donor beads; read-out: PD-1/PD-L1 PPI IC50
Description: Compounds to be tested were serially diluted in DMSO, and further diluted in assay buffer (25 mM Hepes pH 7.4, 150 mM NaCl, 0.005% Tween 20, BSA 0.01%). Diluted compounds were added to the wells with final concentration of DMSO at 1%. PDL1-6×His protein was added to the wells, mixed well with compound. The plates were incubated for 30 min at room temperature. PD1-Fc-Avi-Biotin protein was added to the wells. Final concentration of PDL1 and PD1 protein is 0.3 nM and 2.5 nM, respectively. After a binding time of 30 min at room temperature, Anti-6×His Acceptor beads (final concentration 20 ug/ml) were added to the wells, and the incubation continued for 1 h. Streptavidin Donor beads (final concentration 20 ug/mL) were added at reduced light. The plates were sealed with foil and incubated in the dark for additional 1 h or overnight before reading on an Envision reader. The IC50 values were determined by fitting the curves using a four-parameter equation in Graphpad Prism 8.

PD-1/PD-L1 interaction = PD-1/PD-L1 interaction (Homo sapiens (Human), UniProt Q9NZQ7); assay: PD-1/PD-L1 NFAT Reporter Assay (Jurkat T cells / PD-L1 expressing CHO cells co-culture); type: cell-based; conditions: for EC50: co-culture 6 hrs at 37° C., luciferase
Description: Blocking the PD-1/PD-L1 interaction will release the inhibitory signal and results in TCR signaling and NFAT-mediated luciferase activity.
CHO cells expressing surface-bound anti-CD3 antibodies and PD-L1 were first seeded overnight and treated with the compounds. Jurkat cells overexpressing PD-1 and a luciferase construct under NF-AT promoter were then immediately seeded on the monolayer of CHO cells. The co-culture was then incubated for 6 hrs at 37° C. Luciferase activity was assessed by adding the ONE-Glo reagent and measuring luminescence with a plate reader. EC50s values were determined from the fit of the dose-response curves Emax (%) corresponds to the maximum NFAT-activation level reached by a given compound relative to the positive control (10 nM Atezolizumab).

PD-1/PD-L1 interaction, sequence (Q9NZQ7 19-290): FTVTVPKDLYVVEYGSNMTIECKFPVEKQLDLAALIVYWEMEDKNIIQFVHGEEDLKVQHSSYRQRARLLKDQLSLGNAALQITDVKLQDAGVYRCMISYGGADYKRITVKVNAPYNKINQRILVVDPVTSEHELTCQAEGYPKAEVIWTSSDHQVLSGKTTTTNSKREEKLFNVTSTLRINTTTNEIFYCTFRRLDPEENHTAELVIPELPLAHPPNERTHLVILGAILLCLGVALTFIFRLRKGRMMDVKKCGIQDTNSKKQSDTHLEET
PDL1/PD1, sequence (Q9NZQ7 19-238): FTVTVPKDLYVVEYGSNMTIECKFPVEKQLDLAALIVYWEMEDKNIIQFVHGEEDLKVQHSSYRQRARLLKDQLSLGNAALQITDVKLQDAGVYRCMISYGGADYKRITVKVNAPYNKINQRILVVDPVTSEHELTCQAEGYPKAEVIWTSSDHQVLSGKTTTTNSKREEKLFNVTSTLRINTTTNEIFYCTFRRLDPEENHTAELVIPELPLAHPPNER

COc1nc(-c2cccc(-c3cccc(-c4cc5c(c(OC)n4)[C@H](N4CC(O)C4)CC5)c3Cl)c2Cl)cnc1CN1CC2(CCC(=O)N2)C1 (single isomer, unassigned) [Compound C-6]
IC50 (PDL1/PD1): ≤ 10 nM
EC50 (PD-1/PD-L1 interaction): 100 to 1000 nM

COc1nc(-c2cccc(-c3cccc(-c4cc5c(c(OC)n4)[C@@H](N4CC6(CCC(=O)N6)C4)CC5)c3Cl)c2Cl)cnc1CN1CC2(C1)CN(C(C)=O)C2 (single isomer, unassigned) [Compound D-14]
IC50 (PDL1/PD1): ≤ 10 nM
EC50 (PD-1/PD-L1 interaction): ≤ 10 nM

COc1nc(-c2cccc(-c3cccc(-c4cc5c(c(OC)n4)[C@@H](N4CC6(CCC(=O)N6)C4)CC5)c3Cl)c2Cl)cnc1CNC[C@@H]1CCC(=O)N1 (single isomer, unassigned) [Compound D-15]
IC50 (PDL1/PD1): ≤ 10 nM
EC50 (PD-1/PD-L1 interaction): 10 to 100 nM

COc1nc(-c2cccc(-c3cccc(-c4cc5c(c(OC)n4)[C@H](N4CC6(CN(C(C)=O)C6)C4)CC5)c3Cl)c2Cl)cnc1CNC[C@@H]1CCC(=O)N1 (single isomer, unassigned) [Compound D-17]
IC50 (PDL1/PD1): ≤ 10 nM
EC50 (PD-1/PD-L1 interaction): 10 to 100 nM

COc1nc(-c2cccc(-c3cccc(-c4cc5c(c(OC)n4)[C@@H](N4CC6(CN(C(C)=O)C6)C4)CC5)c3Cl)c2Cl)cnc1CN1CC2(C1)CN(C(C)=O)C2 (single isomer, unassigned) [Compound D-18]
IC50 (PDL1/PD1): ≤ 10 nM
EC50 (PD-1/PD-L1 interaction): > 10000 nM

COc1nc(-c2cccc(-c3cccc(-c4cc5c(c(OC)n4)[C@H](N4CC6(CN(C(C)=O)C6)C4)CC5)c3Cl)c2Cl)cnc1CN1CC2(C1)CN(C(C)=O)C2 (single isomer, unassigned) [Compound D-19]
IC50 (PDL1/PD1): ≤ 10 nM
EC50 (PD-1/PD-L1 interaction): ≤ 10 nM

COc1nc(-c2cccc(-c3cccc(-c4cc5c(c(OC)n4)[C@@H](NC[C@@H]4CCC(=O)N4)CO5)c3Cl)c2Cl)cc(C)c1CN1CC2(C1)CN(C(C)=O)C2 (single isomer, unassigned) [Compound E-4]
IC50 (PDL1/PD1): ≤ 10 nM
EC50 (PD-1/PD-L1 interaction): ≤ 10 nM

CCOC(=O)C1CN([C@H]2CCc3cc(-c4cccc(-c5cccc(-c6cnc(CN7CC(OC)C7)c(OC)n6)c5Cl)c4Cl)nc(OC)c32)C1 (single isomer, unassigned) [Compound G-5]
IC50 (PDL1/PD1): ≤ 10 nM
EC50 (PD-1/PD-L1 interaction): 10 to 100 nM

CCOC(=O)C1CN([C@@H]2CCc3cc(-c4cccc(-c5cccc(-c6cnc(CN7CC(OC)C7)c(OC)n6)c5Cl)c4Cl)nc(OC)c32)C1 (single isomer, unassigned) [Compound G-6]
IC50 (PDL1/PD1): ≤ 10 nM
EC50 (PD-1/PD-L1 interaction): 1000 to 10000 nM

COc1nc(-c2cccc(-c3cccc(-c4cc5c(c(OC)n4)[C@@H](N4CC(C(=O)O)C4)CC5)c3Cl)c2Cl)cnc1CN1CC(OC)C1 (single isomer, unassigned) [Compound H-3]
IC50 (PDL1/PD1): ≤ 10 nM
EC50 (PD-1/PD-L1 interaction): 10 to 100 nM

COc1nc(-c2cccc(-c3cccc(-c4cc5c(c(OC)n4)[C@H](N4CC(C(=O)O)C4)CC5)c3Cl)c2Cl)cnc1CN1CC(OC)C1 (single isomer, unassigned) [Compound H-4]
IC50 (PDL1/PD1): ≤ 10 nM
EC50 (PD-1/PD-L1 interaction): 100 to 1000 nM

COc1nc(-c2cccc(-c3cccc(-c4cc5c(c(OC)n4)[C@@H](N4CC(C(=O)O)C4)CC5)c3Cl)c2Cl)cnc1CN1C[C@@H](O)[C@@H]1C (single isomer, unassigned) [Compound H-5]
IC50 (PDL1/PD1): ≤ 10 nM
EC50 (PD-1/PD-L1 interaction): 10 to 100 nM

COc1nc(-c2cccc(-c3cccc(-c4cc5c(c(OC)n4)[C@H](N4CC(C(=O)O)C4)CC5)c3Cl)c2Cl)cnc1CN1C[C@@H](O)[C@@H]1C (single isomer, unassigned) [Compound H-6]
IC50 (PDL1/PD1): ≤ 10 nM
EC50 (PD-1/PD-L1 interaction): 100 to 1000 nM

CCOC(=O)CN[C@H]1CCc2cc(-c3cccc(-c4cccc(-c5cnc(CN6CC7(CCC(=O)N7)C6)c(OC)n5)c4Cl)c3Cl)cc(OC)c21 [Compound A-1]
IC50 (PDL1/PD1): ≤ 10 nM
Emax (PD-1/PD-L1 interaction; Jurkat, maximum NFAT-activation level relative to the positive control (10 nM Atezolizumab)): 33%

COc1nc(-c2cccc(-c3cccc(-c4cc5c(c(OC)n4)[C@H](NC[C@@H]4CCC(=O)N4)CC5)c3Cl)c2Cl)cnc1CN1CC2(CCC(=O)N2)C1 [Compound C-2]
IC50 (PDL1/PD1): ≤ 10 nM
EC50 (PD-1/PD-L1 interaction): 100 to 1000 nM

COc1nc(-c2cccc(-c3cccc(-c4cc5c(c(OC)n4)C(NC[C@H]4CCC(=O)N4)CC5)c3Cl)c2Cl)cnc1CN1CC2(CCC(=O)N2)C1 (stereo partly drawn) [Compound C-7]
IC50 (PDL1/PD1): ≤ 10 nM
EC50 (PD-1/PD-L1 interaction): 10 to 100 nM

COc1nc(-c2cccc(-c3cccc(-c4cc5c(c(OC)n4)C(NC4CN(C(C)=O)C4)CC5)c3Cl)c2Cl)cnc1CN1CC2(CCC(=O)N2)C1 (stereo not drawn) [Compound C-8]
IC50 (PDL1/PD1): ≤ 10 nM
EC50 (PD-1/PD-L1 interaction): 10 to 100 nM

COc1nc(-c2cccc(-c3cccc(-c4cc5c(c(OC)n4)C(N4CCC(F)(F)C4)CC5)c3Cl)c2Cl)cnc1CN1CC2(CCC(=O)N2)C1 (stereo not drawn) [Compound C-9]
IC50 (PDL1/PD1): ≤ 10 nM
EC50 (PD-1/PD-L1 interaction): 100 to 1000 nM

COc1nc(-c2cccc(-c3cccc(-c4cc5c(c(OC)n4)C(N4CCN(C(C)=O)CC4)CC5)c3Cl)c2Cl)cnc1CN1CC2(CCC(=O)N2)C1 (stereo not drawn) [Compound C-10]
IC50 (PDL1/PD1): ≤ 10 nM
EC50 (PD-1/PD-L1 interaction): 10 to 100 nM

COc1nc(-c2cccc(-c3cccc(-c4cc5c(c(OC)n4)C(N4CC6(CN(C(C)=O)C6)C4)CC5)c3Cl)c2Cl)cnc1CN1CC2(CCC(=O)N2)C1 (stereo not drawn) [Compound C-11]
IC50 (PDL1/PD1): ≤ 10 nM
EC50 (PD-1/PD-L1 interaction): 10 to 100 nM

CCOc1nc(-c2cccc(-c3cccc(-c4cnc(CN5CC6(CCC(=O)N6)C5)c(OC)n4)c3Cl)c2Cl)cc2c1C(NC[C@@H]1CCC(=O)N1)CC2 (stereo partly drawn) [Compound C-12]
IC50 (PDL1/PD1): ≤ 10 nM
EC50 (PD-1/PD-L1 interaction): 10 to 100 nM

COc1nc(-c2cccc(-c3cccc(-c4cc5c(c(OCC6CC6)n4)C(NC[C@@H]4CCC(=O)N4)CC5)c3Cl)c2Cl)cnc1CN1CC2(CCC(=O)N2)C1 (stereo partly drawn) [Compound C-14]
IC50 (PDL1/PD1): ≤ 10 nM
EC50 (PD-1/PD-L1 interaction): 10 to 100 nM

COc1nc(-c2cccc(-c3cccc(-c4cc5c(c(OCc6ccccn6)n4)C(NC[C@@H]4CCC(=O)N4)CC5)c3Cl)c2Cl)cnc1CN1CC2(CCC(=O)N2)C1 (stereo partly drawn) [Compound C-15]
IC50 (PDL1/PD1): ≤ 10 nM
EC50 (PD-1/PD-L1 interaction): 10 to 100 nM

COc1nc(-c2cccc(-c3cccc(-c4cc5c(c(OC)n4)[C@@H](NC[C@@H]4CCC(=O)N4)CC5)c3Cl)c2Cl)cnc1CNC[C@@H]1CCC(=O)N1 [Compound D-2]
IC50 (PDL1/PD1): ≤ 10 nM
EC50 (PD-1/PD-L1 interaction): ≤ 10 nM

COc1nc(-c2cccc(-c3cccc(-c4cc5c(c(OC)n4)[C@@H](NC[C@@H]4CCC(=O)N4)CC5)c3Cl)c2Cl)cnc1CN1CC2(CCCO2)C1 [Compound D-3]
IC50 (PDL1/PD1): ≤ 10 nM
EC50 (PD-1/PD-L1 interaction): ≤ 10 nM

COc1nc(-c2cccc(-c3cccc(-c4cc5c(c(OC)n4)[C@@H](NC[C@@H]4CCC(=O)N4)CC5)c3Cl)c2Cl)cnc1CN1CC(F)C1 [Compound D-4]
IC50 (PDL1/PD1): ≤ 10 nM
EC50 (PD-1/PD-L1 interaction): 10 to 100 nM

COc1nc(-c2cccc(-c3cccc(-c4cc5c(c(OC)n4)[C@@H](NC[C@@H]4CCC(=O)N4)CC5)c3Cl)c2Cl)cnc1CN1CC(F)(F)C1 [Compound D-5]
IC50 (PDL1/PD1): ≤ 10 nM
EC50 (PD-1/PD-L1 interaction): 10 to 100 nM

COc1nc(-c2cccc(-c3cccc(-c4cc5c(c(OC)n4)[C@@H](NC[C@@H]4CCC(=O)N4)CC5)c3Cl)c2Cl)cnc1CN1CCN(C(C)=O)CC1 [Compound D-6]
IC50 (PDL1/PD1): ≤ 10 nM
EC50 (PD-1/PD-L1 interaction): ≤ 10 nM

COc1nc(-c2cccc(-c3cccc(-c4cc5c(c(OC)n4)[C@H](NC[C@@H]4CCC(=O)N4)CC5)c3Cl)c2Cl)cnc1CN1CC(O)C1 [Compound D-7]
IC50 (PDL1/PD1): ≤ 10 nM
EC50 (PD-1/PD-L1 interaction): 100 to 1000 nM

COc1nc(-c2cccc(-c3cccc(-c4cc5c(c(OC)n4)[C@@H](NC[C@@H]4CCC(=O)N4)CC5)c3Cl)c2Cl)cnc1CN1CC(O)C1 [Compound D-8]
IC50 (PDL1/PD1): ≤ 10 nM
EC50 (PD-1/PD-L1 interaction): ≤ 10 nM

COc1nc(-c2cccc(-c3cccc(-c4cc5c(c(OC)n4)[C@@H](NC[C@@H]4CCC(=O)N4)CC5)c3Cl)c2Cl)cnc1CN1CC(OC)C1 [Compound D-9]
IC50 (PDL1/PD1): ≤ 10 nM
EC50 (PD-1/PD-L1 interaction): ≤ 10 nM

COc1nc(-c2cccc(-c3cccc(-c4cc5c(c(OC)n4)[C@H](NC[C@@H]4CCC(=O)N4)CC5)c3Cl)c2Cl)cnc1CN1CC(OC)C1 [Compound D-10]
IC50 (PDL1/PD1): ≤ 10 nM
EC50 (PD-1/PD-L1 interaction): 1000 to 10000 nM

COc1nc(-c2cccc(-c3cccc(-c4cc5c(c(OC)n4)[C@@H](NC[C@@H]4CCC(=O)N4)CC5)c3Cl)c2Cl)cnc1CN1CCCC1 [Compound D-11]
IC50 (PDL1/PD1): ≤ 10 nM
EC50 (PD-1/PD-L1 interaction): ≤ 10 nM

Reference: patent US11760761B2, “Methods and compositions for targeting PD-L1” (Aligos Therapeutics, Inc., priority 2020, dated 2023)
